Measured values as given in patent publication US12054485B2, “Substituted imidazoquinolines” (BIONTECH SE, priority 2017, dated 2024).

Assays:
human TLR8 = molecular target: T1, human TLR8 (Homo sapiens, UniProt Q9NR97); assay: TLR8 reporter gene assay (HEK-Blue-hTLR8, NFkB/AP-1 inducible SEAP); assay type: cell-based
T1 construct: host or cells: HEK-Blue-hTLR8
T1 sequence (Q9NR97 27-1041): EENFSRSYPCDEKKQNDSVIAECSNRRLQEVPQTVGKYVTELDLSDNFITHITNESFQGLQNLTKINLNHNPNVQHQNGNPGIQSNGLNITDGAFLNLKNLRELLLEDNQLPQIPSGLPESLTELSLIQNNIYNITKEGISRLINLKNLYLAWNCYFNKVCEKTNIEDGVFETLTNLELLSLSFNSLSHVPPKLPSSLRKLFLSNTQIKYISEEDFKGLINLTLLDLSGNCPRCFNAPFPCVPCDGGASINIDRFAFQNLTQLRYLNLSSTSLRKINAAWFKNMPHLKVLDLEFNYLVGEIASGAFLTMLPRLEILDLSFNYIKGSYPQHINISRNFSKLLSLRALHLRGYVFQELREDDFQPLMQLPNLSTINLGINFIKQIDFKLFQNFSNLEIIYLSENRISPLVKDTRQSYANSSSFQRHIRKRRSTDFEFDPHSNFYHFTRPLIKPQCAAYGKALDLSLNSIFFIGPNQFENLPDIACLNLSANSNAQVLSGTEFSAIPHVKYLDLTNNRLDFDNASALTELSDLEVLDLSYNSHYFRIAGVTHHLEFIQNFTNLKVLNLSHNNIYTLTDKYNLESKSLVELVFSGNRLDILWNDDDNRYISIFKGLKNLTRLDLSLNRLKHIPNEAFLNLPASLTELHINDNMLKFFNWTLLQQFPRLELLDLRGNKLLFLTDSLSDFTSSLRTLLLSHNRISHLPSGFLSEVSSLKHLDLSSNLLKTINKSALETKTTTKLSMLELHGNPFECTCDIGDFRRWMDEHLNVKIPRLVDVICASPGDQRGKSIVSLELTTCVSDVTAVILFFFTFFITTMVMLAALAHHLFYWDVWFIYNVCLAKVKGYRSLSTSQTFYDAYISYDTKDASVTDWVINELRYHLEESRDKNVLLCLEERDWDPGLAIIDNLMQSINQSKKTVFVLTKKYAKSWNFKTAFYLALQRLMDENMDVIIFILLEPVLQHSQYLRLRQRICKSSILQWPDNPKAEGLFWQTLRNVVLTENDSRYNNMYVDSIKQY
Procedure: 2) TLR Stimulation Assay:
Compounds are tested for stimulation of human TLR7 and TLR8, respectively, via reporter gene expression analyzed in a cell line stably transfected with human TLR7 and TLR8, respectively, and coexpressing an NFkB/AP-1 inducible SEAP reporter gene. Stimulation with a TLR ligand leads to NFkB/AP-1 activation and upregulation and secretion of SEAP, which can be measured in the supernatant with QuantiBlue™ detection system (InvivoGen).
Cell lines used were either HEK-Blue-hTLR7 (InvivoGen #hkb-htlr7) or HEK-Blue-hTLR8 (InvivoGen #hkb-htlr8). Cells were cultured following manufacturer's instructions. […]

cynomolgus monkeys = assay: In vivo IFN-α secretion in cynomolgus monkeys (plasma IFN-α ELISA); conditions: cynomolgus monkey, single i.v. 30 min infusion, 0.1 mg/kg
Procedure: In the following studies, compounds according to the invention were examined in an in vivo cynomolgus monkey model. It is evaluated whether and at which applied dose the compounds cause secretion of IFN-α.
In particular, a defined single dose of test compound was applied intravenously to cynomolgus monkeys by a thirty minute infusion. At several time points after initiation of the intravenous compound application, blood samples (0.5 mL for approximately 0.25 mL plasma) were collected from the vena cephalica antebrachii or vena saphena into K3EDTA tubes from the animals. Blood samples were stored on crushed ice prior to centrifugation. Plasma was obtained by centrifugation at 4° C. and approximately 1800 g for 10 minutes and was aliquoted into labeled micro tubes and stored frozen at −70° C. or below. Plasma samples were thawed, diluted and used for determination of IFN-α levels using an IFN-α Elisa Kit (e.g. VeriKine™ Cynomolgus/Rhesus IFN-α ELISA Kit) according to the manufacturer's instructions.

CCc1nc2c(N)nc3ccccc3c2n1CCCCN(C(C)=O)C1CCOCC1 [Example 1, N-(4-(4-Amino-2-ethyl-1H-imidazo[4,5-c]quinolin-1-yl)butyl)-N-(tetrahydro-2H-pyran-4-yl)acetamide]
activity towards TLR8 in the TLR8 reporter gene assay (human TLR8): no activity | IFN-α secretion (plasma) (cynomolgus monkeys): up to 15,000 pg/ml
